In brackets after ≈: the same amount, converted by molar mass.

From ChEMBL document CHEMBL4842359, “1,3-Diarylpyrazolyl-acylsulfonamides as Potent Anti-tuberculosis Agents Targeting Cell Wall Biosynthesis in Mycobacterium tuberculosis” (J Med Chem, 2021) come the findings set out here.

Data set [1] in a line: Thermodynamic solubility of compound at pH 7.4 aqueous phosphate buffer.
The nature of data set [2]: Lipophilicity, logD of the compound at pH 7.4 by HPLC-DAD analysis. The format is physicochemical. The settings on record: buffer.
The nature of data set [3]: Metabolic stability in human liver microsomes assessed as compound remaining at 1 uM by LC-MS/MS analysis. Format: ADME, Microsome. The settings on record: for Stabilty: microsomes, 1 µM. Background: Liver microsomes are a subcellular fraction often used to study metabolism.
Data set [4] can be described thus: Metabolic stability in rat liver microsomes assessed as compound remaining at 1 uM by LC-MS/MS analysis. Format: ADME, Microsome. The settings on record: for Stabilty: microsomes, 1 µM.
Data set [5] in a line: Metabolic stability in mouse liver microsomes assessed as compound remaining at 1 uM by LC-MS/MS analysis. Format: ADME, Microsome. The settings on record: for Stabilty: microsomes, 1 µM.
Data set [6] is described as follows: Unbound clearance in iv dosed C57BL/6 mouse measured up to 24 hrs by LC-MS/MS analysis. Format: ADME, organism-based. The settings on record: in vivo.
Data set [7] can be described thus: AUC (0 to t) in iv dosed C57BL/6 mouse measured up to 24 hrs by LC-MS/MS analysis. Format: ADME, organism-based. On the set-up: time <=24. The settings on record: in vivo.
Data set [8] is described as follows: Dru metabolism in iv dosed mouse assessed as metabolite in blood. Format: ADME, organism-based. The settings on record: in vivo.
A short description of data set [9]: Dru metabolism in iv dosed mouse assessed as metabolite in urine. The format is ADME, organism-based. The settings on record: in vivo.
A short description of data set [10]: Dru metabolism in iv dosed mouse assessed as metabolite in feces. Format: ADME, organism-based. The settings on record: in vivo.
Data set [11] in a line: Terminal half life in iv dosed C57BL/6 mouse measured up to 24 hrs by LC-MS/MS analysis. Format: ADME, organism-based. The settings on record: in vivo; for beta t1/2: mouse, 24 h.
Data set [12] is described as follows: Volume of distribution in iv dosed C57BL/6 mouse measured up to 24 hrs by LC-MS/MS analysis. The format is ADME, organism-based. The settings on record: in vivo.
Data set [13] has as its system Mycobacterium tuberculosis. Put plainly: microbe, parasite or virus in culture. The settings on record: H37RvMA.
Description: Antimycobacterial activity against drug-susceptible Mycobacterium tuberculosis H37RvMA by MIGIT method
Data set [14] concerns Mycobacterium tuberculosis. Put plainly: microbe, parasite or virus in culture. The settings on record: S2371.
Description: Antimycobacterial activity against drug-susceptible Mycobacterium tuberculosis S2371 by MIGIT method
The subject of data set [15] is Mycobacterium tuberculosis. Put plainly: microbe, parasite or virus in culture. The settings on record: S1125.
Description: Antimycobacterial activity against drug-susceptible Mycobacterium tuberculosis S1125 by MIGIT method
Data set [16] is described as follows: Plasma protein binding in human assessed as unbound fraction at 5 uM by LC-MS/MS analysis. The format is ADME, cell-free. The settings on record: for Fu: 5 µM.
Data set [17] relates to Mycobacterium tuberculosis. Put plainly: microbe, parasite or virus in culture. The settings on record: H37Rv, 336 h.
Description: Antimycobacterial activity against Mycobacterium tuberculosis H37Rv in presence of middlebrook 7H9/glucose/BSA/tyloxapol medium measured after 14 days by bioluminescence reporter assay
Data set [18] is described as follows: Oral bioavailability in mouse. The format is ADME, organism-based. The settings on record: in vivo.
Data set [19] relates to Mycobacterium tuberculosis. Put plainly: animal or person. Format: functional. The settings on record: time 7 day.
Data set [20] can be described thus: Toxicity in BALB/c mouse assessed as tolerability at 200 mg/kg, po once a day treatment initiated 7 days after infection for 12 consecutive days. The settings on record: in vivo, 168 h, time 7 day. Format: organism-based.
Data set [21] has as its system Mycobacterium tuberculosis. Put plainly: microbe, parasite or virus in culture. The settings on record: H37RvMA, 336 h.
Description: Antimycobacterial activity against Mycobacterium tuberculosis H37RvMA in presence of middlebrook 7H9/glucose/BSA/tyloxapol medium measured for 2 weeks by bioluminescence reporter assay
For data set [22], the system named is Mycobacterium tuberculosis. Put plainly: microbe, parasite or virus in culture. The settings on record: 336 h.
Description: Antimycobacterial activity against Mycobacterium tuberculosis delta cyd in presence of middlebrook 7H9/glucose/BSA/tyloxapol medium measured for 2 weeks by bioluminescence reporter assay
The test system of data set [23] is Mycobacterium tuberculosis. Format: functional. The settings on record: H37Rv.
Data set [24] deals with HepG2. Put plainly: Cytotoxicity against human HepG2 cells under glucose containing medium. The format is cell-based.
Data set [25] deals with HepG2. Put plainly: Cytotoxicity against human HepG2 cells under galactose containing medium. The format is cell-based.
Setting [26] is: liver microsomes, read-out: Stabilty.

On to `CS(=O)(=O)NC(=O)NCc1cn(-c2ccc(Cl)cc2)nc1-c1ccncc1`, for which the thermodynamic solubility (as a rule, the concentration in solution at equilibrium with solid) in data set [1] was 150 µM (≈ 60.9 µg/mL). Besides, the logD – broadly, the decadic logarithm of the distribution of all forms, ionised or not, between an organic phase and buffer at a given pH – in data set [2] worked out at 0.81. The results for the Stabilty in [3], in data set [4] and in [5] were 99%, 98% and 91%, respectively. In [6], the CL free worked out at 4878 mL/min/kg. In [7], this molecule had an AUCt of 29 µmol·min/L. Moreover, the Drug metabolism entry in data set [8], in [9] and in data set [10] was “Metabolite_Notdetected” in each case.

`CS(=O)(=O)NC(=O)CCc1cn(-c2ccc(Br)cc2)nc1-c1ccncc1` displayed a solubility (thermodynamic) in [1] of 185 µM (≈ 83.1 µg/mL). In data set [2], this molecule yielded a pH-dependent lipophilicity (logD) of 0.93. The Stabilty was 85% in [3], 94% in data set [4] and 79% in [5]. Further, the “beta t1/2” value in data set [11] was determined as 1.3 h. The Vd – broadly, the apparent volume that relates the amount in the body to the concentration in plasma or blood – in data set [12] (C57BL/6, mouse, read-out: Vd) is 0.1 L/kg. Further, in data set [6], the CL free was over 20000 mL/min/kg. Besides, the AUCt in data set [7] is 15 µmol·min/L. The figures for the MIC in data set [13], in [14] and in [15] were at most 15 µM, 30 µM (≈ 13.5 µg/mL) and 15 µM (≈ 6.74 µg/mL), respectively.

As for `CS(=O)(=O)NC(=O)CCc1cn(-c2ccc(C(F)(F)F)nc2)nc1-c1ccc(Cl)cc1`, the thermodynamic solubility in data set [1] worked out at 90 µM (≈ 42.6 µg/mL). In addition, in [2], the logD came out at 1.87. The Stabilty is reported as 94% in [3], 98% in [4] and 94% in data set [5]. Besides, the Fu in [16] was determined as 0.036 fraction. The “beta t1/2” value in data set [11] is 3 h. The Vd in data set [12] (mouse, 24 h) came to 8.7 L/kg. The molecule further displayed a CL free in [6] of 1872 mL/min/kg. The same molecule came in with an AUCt in data set [7] of 134 µmol·min/L. In data set [17], this molecule yielded an MIC of 4.7 µM (≈ 2.22 µg/mL).

With `CS(=O)(=O)NC(=O)CCc1cn(-c2ccc(Cl)cc2)nc1-c1ccc(Cl)cc1`, the thermodynamic solubility in [1] amounted to 100 µM (≈ 43.8 µg/mL). Besides, in [2] (read-out: logD), the pH-dependent lipophilicity (logD) was determined as 2. Moreover, the remaining at 1 µM in data set [3] (setting [26]) is 98%; in data set [4] (setting [26]), over 99%; in data set [5] (setting [26]), 87%. For the same molecule, in data set [16], the fraction unbound (in general, free concentration divided by total concentration) at 5 µM was 0.023. In addition, the half-life in data set [11] (C57BL/6, mouse, read-out: beta t1/2 (converted)) is 3.6 h. In addition, the Vd in data set [12] (C57BL/6, mouse, read-out: Vd) was determined as 1.2 L/kg. This molecule also yielded a CL free in [6] of 111 mL/min/kg. The molecule also returned an AUCt in data set [7] of 4883 µmol·min/L. Moreover, the bioavailability (as a rule, dose-corrected exposure relative to a reference, in per cent) in [18] was over 95%. The molecule further had an MIC at 200 mg/kg in data set [19] (Mycobacterium tuberculosis, Erdman, in Mus musculus, po, 168 h) of 9.1 µM (≈ 3.99 µg/mL). In data set [19] (dose 200 mg/kg), the fIC50 worked out at 11 µM. For the same molecule, the Activity entry in data set [20] is on record as “Non-Toxic”. The figures for the MIC in [17], in [21] and in [22] were 4.7 µM (≈ 2.06 µg/mL), 4 µM (≈ 1.75 µg/mL) and 4 µM (≈ 1.75 µg/mL), respectively.

Molecule `CS(=O)(=O)NC(=O)CCc1cn(-c2ccc(Br)cc2)nc1-c1cccnc1` had a solubility (thermodynamic) in [1] of 200 µM (≈ 89.9 µg/mL). Moreover, the logD in data set [2] worked out at 0.84. In addition, the Stabilty in data set [3] is listed as 37%; in data set [4], 95%; in data set [5], 94%. Moreover, the Fu in data set [16] amounted to 0.022 fraction. In addition, the “beta t1/2” value in data set [11] stood at 1.7 h. This molecule also gave a Vd in data set [12] (mouse, 24 h) of 28.1 L/kg. The molecule further gave a CL free in [6] of 8091 mL/min/kg. In [7], the AUCt worked out at 31 µmol·min/L. This molecule also registered an MIC in [17] of 6.25 µM (≈ 2.81 µg/mL).

On to `CS(=O)(=O)NC(=O)CCc1cc(-c2ccc(Br)cc2)nn1-c1ccc(Cl)cc1`, for which the thermodynamic solubility in data set [1] was 200 µM (≈ 96.6 µg/mL). The logD in [2] is 2.1. Moreover, the values for the Stabilty in data set [3], in data set [4] and in data set [5] were over 99%, 87% and 91%, respectively. Besides, in data set [16], the Fu is 0.01 fraction. Further, the “beta t1/2” value in data set [11] is 3.6 h. The molecule also showed a volume of distribution (Vd) in [12] (mouse, 24 h) of 1 L/kg. Besides, the CL free in data set [6] amounted to 313 mL/min/kg. Also, the AUCt in data set [7] came out at 1359 µmol·min/L. Moreover, in data set [17], the MIC was 6.25 µM (≈ 3.02 µg/mL).

As for `CS(=O)(=O)NC(=O)CCc1cn(-c2ccc(Br)cc2)nc1-c1ccc(Cl)cc1`, in data set [23], the IC90 – broadly, the concentration at which the effect reaches the 90% level – was found to be 6.25 µM. For the same molecule, the IC50 in data set [24] and in [25] was over 50 µM throughout. This molecule also registered a solubility (thermodynamic) in data set [1] of 170 µM (≈ 82.1 µg/mL). In [2], the logD was 2.4. The values for the Stabilty in [3], in data set [4] and in data set [5] were 90%, 74% and 71%, respectively. The Vd in data set [12] (mouse, 24 h) was 0.2 L/kg. Also, the CL free in [6] worked out at 295 mL/min/kg. Also, in data set [7], the AUCt amounted to 3527 µmol·min/L.

The molecule `CS(=O)(=O)NC(=O)CCc1cn(-c2ccc(Br)cc2)nc1C1CCOCC1` showed a thermodynamic solubility in [1] of 200 µM (≈ 91.3 µg/mL). The logD in data set [2] is 0.55. For the same molecule, the Stabilty in [3] was found to be 86%; in data set [4], 83%; in data set [5], 77%. The Fu in data set [16] is reported as 0.07 fraction. Besides, the “beta t1/2” value in data set [11] stood at 2.3 h. Further, in [12] (mouse, 24 h), the Vd was 29.3 L/kg. Moreover, in data set [6], the CL free is 2071 mL/min/kg. Further, the AUCt in data set [7] is 31 µmol·min/L. In [17], this molecule registered an MIC of 9.4 µM (≈ 4.29 µg/mL).

Regarding `CCc1cc(C(N)=S)ccn1` [ETHIONAMIDE], the MIC in data set [21] is 15.6 µM (≈ 2.59 µg/mL).
